# Data published in publication PMC10427684, “Diversity-oriented synthesis encoded by deoxyoligonucleotides” (Nature Communications, 2023).
# Biological target: T1, glutathione S-transferase (GST), His-tagged (Schistosoma japonicum, UniProt P08515)
# T1 construct: His-tagged GST (Abcam ab89494); also the GST portion of N-His-GST-tagged USP7 (Lys208-Glu560)
# Assay: DSF with isolated His-tagged GST (dose-dependent thermal shift), confirmed by SPR
# Type: binding
# Conditions: read-out: delta_Tm
# T1 sequence (P08515 2-218): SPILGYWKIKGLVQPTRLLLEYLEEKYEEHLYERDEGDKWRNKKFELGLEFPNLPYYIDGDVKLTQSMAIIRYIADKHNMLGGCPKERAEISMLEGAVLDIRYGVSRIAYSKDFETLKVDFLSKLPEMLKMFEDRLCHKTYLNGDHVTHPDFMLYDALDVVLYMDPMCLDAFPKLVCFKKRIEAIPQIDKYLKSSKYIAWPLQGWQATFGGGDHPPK
row,SMILES,ΔTm at 100 µM
1,"C=CCNc1ncc(C(=O)N2CC[C@H](c3cccc(-c4cc(F)cc(OCC(=O)O)c4)c3)[C@@H]2C(=O)NC)s1 [compound 3, 3]",3.3 °C

# Biological target: T2, Carbonic anhydrase II (CAII), BioVision kit #K473-100 (Homo sapiens, UniProt P00918)
# T2 construct: gene CA2; kit enzyme
# Assay: biochemical
# Parameters: CAII esterase activity inhibition kit, absorbance at 405 nm, dose-response
# Conditions: not given
# Method: Carbonic anhydrase II (CAII) inhibition assays were performed using a commercially available kit (BioVision, #K473-100), following the manufacturer’s protocol. For each assayed DOSEDO compound, 11 concentrations (half-log dilutions from 10 µM to 100 pM) were tested, with three technical replicates performed on each of two separate 384-well µClear® medium-binding, flat-bottom polystyrene microplates (Greiner Bio-One, #82051-294) (n = 6 for each compound concentration); for 53 only, six technical replicates (n = 6) were performed on the same plate for each compound concentration. Each reaction well contained 3 µL of compound (prepared in 10% DMSO, 90% kit buffer), 25.5 µL of enzyme/buffer mix (1.4 µL enzyme, 24.1 µL kit buffer), and 1.5 µL of substrate, for a total volume of 30 µL. Absorbance at 405 nm was read on a Molecular Devices SpectraMax i3x. In addition to the experimental conditions, a DMSO control and a no-enzyme control were each performed with three technical replicates on each plate, except for the experiment with 53, where six technical replicates for each control were performed on the same plate. The average change in absorbance for the no-enzyme control was subtracted from the change in absorbance over the same time interval for each experimental condition and the DMSO control on the same plate. For each concentration of each compound, relative activity was calculated separately for each replicate based on the average change in absorbance for the DMSO control on the same plate. Dose-response curves were fitted and IC50 values and 95% confidence intervals were calculated using GraphPad Prism v9.2.0. Curves were fitted using GraphPad Prism’s log(inhibitor) vs. response-variable slope nonlinear regression equation, with the top asymptote constrained to 100. Outliers were detected and removed via GraphPad Prism’s ROUT method, with a Q-value of 1%. Error bars (only shown if greater than the height of the symbol) represent 95% confidence intervals (Supplementary Fig. 22).
row,IC50,SMILES
1,> 10000 nM,"CC(=O)N1C[C@H](c2ccc(-c3cccc(S(N)(=O)=O)c3)cc2)C2(C1)CN(C(=O)c1nc(C)n3c1CCCC3)C2 [compound 53, (R)-4'-(6-Acetyl-2-(3-methyl-5,6,7,8-tetrahydroimidazo[1,5-a]pyridine-1-carbonyl)-2,6-diazaspiro[3.4]octan-8-yl)-[1,1'-biphenyl]-3-sulfonamide]"
2,279 nM,"CC(=O)N1CC2(CN(Cc3ccc(S(N)(=O)=O)o3)C[C@@H]2c2ccc(-c3ccc(F)c(CN(C)C)c3)cc2)C1 [compound 46, (R)-5-((2-Acetyl-8-(3'-((dimethylamino)methyl)-4'-fluoro-[1,1'-biphenyl]-4-yl)-2,6-diazaspiro[3.4]octan-6-yl)methyl)furan-2-sulfonamide]"
3,26 nM,"CNC(=O)[C@H]1C[C@@H](Oc2cccc(C3=CCNCC3)c2)CN1S(=O)(=O)c1ccc(S(N)(=O)=O)cc1 [compound 45, (2R,4R)-N-Methyl-1-((4-sulfamoylphenyl)sulfonyl)-4-(3-(1,2,3,6-tetrahydropyridin-4-yl)phenoxy)pyrrolidine-2-carboxamide]"
4,64 nM,"CNC(=O)[C@H]1C[C@H](Oc2cccc(-c3ccc(S(N)(=O)=O)cc3)c2)CN1Cc1cn2c(n1)CCC2 [compound 52, (2R,4S)-1-((6,7-Dihydro-5H-pyrrolo[1,2-a]imidazol-2-yl)methyl)-N-methyl-4-((4'-sulfamoyl-[1,1'-biphenyl]-3-yl)oxy)pyrrolidine-2-carboxamide]"
5,34 nM,"CC(=O)N1C[C@@H](c2ccc(-c3ccc(S(N)(=O)=O)cc3)cc2)C2(C1)CN(C(=O)C(C)Oc1cccc(C#N)c1)C2 (stereo partly drawn) [compound 54, 4'-((8S)-6-Acetyl-2-(2-(3-cyanophenoxy)propanoyl)-2,6-diazaspiro[3.4]octan-8-yl)-[1,1'-biphenyl]-4-sulfonamide]"
6,31 nM,"C[C@H]1CN([C@@H](C)CO)S(=O)(=O)c2ccc(-c3ccc(S(N)(=O)=O)cc3)cc2O[C@H]1CN(C)C(=O)c1cnoc1-c1ccco1 [compound 57, 5-(Furan-2-yl)-N-(((4S,5R)-2-((S)-1-hydroxypropan-2-yl)-4-methyl-1,1-dioxido-8-(4-sulfamoylphenyl)-2,3,4,5-tetrahydrobenzo[b][1,4,5]oxathiazocin-5-yl)methyl)-N-methylisoxazole-4-carboxamide]"
7,16 nM,"C[C@@H]1CN([C@@H](C)CO)S(=O)(=O)c2ccc(-c3ccc(S(N)(=O)=O)cc3)cc2O[C@H]1CN(C)C(=O)c1cnoc1-c1ccco1 [compound 59, 5-(Furan-2-yl)-N-(((4R,5R)-2-((S)-1-hydroxypropan-2-yl)-4-methyl-1,1-dioxido-8-(4-sulfamoylphenyl)-2,3,4,5-tetrahydrobenzo[b][1,4,5]oxathiazocin-5-yl)methyl)-N-methylisoxazole-4-carboxamide]"
8,17 nM,"C[C@H](CO)N1C[C@H](C)[C@@H](CN(C)C(=O)c2coc(S(C)(=O)=O)c2)Oc2cc(-c3ccc(S(N)(=O)=O)cc3)ccc2S1(=O)=O [compound 58, N-(((4S,5S)-2-((R)-1-Hydroxypropan-2-yl)-4-methyl-1,1-dioxido-8-(4-sulfamoylphenyl)-2,3,4,5-tetrahydrobenzo[b][1,4,5]oxathiazocin-5-yl)methyl)-N-methyl-5-(methylsulfonyl)furan-3-carboxamide]"
